Experimental data as given in US9115169B2, “Method of treating tumors” (Lytix Biopharma AS, priority 2000, dated 2015).
Converted amounts (≈) assume the structure as drawn. Where a SMILES comes first, the peptide text is derived from it. [ ]: non-standard residue; d: D form. The star is where a group is joined. Phe(4-tBu) = CC(C)(C)c1ccc(C[C@H](N)C(=O)O)cc1; tBuAla = CC(C)(C)C[C@H](N)C(=O)O; Tle = CC(C)(C)[C@H](N)C(=O)O; OBn = c1ccc(CO*)cc1

Experiments:
[1] = system: Staphylococcus aureus ATCC 25923; assay: microbe, parasite or virus in culture; settings: ATCC25923, read-out: MIC S. aureus
[2] = system: Escherichia coli ATCC 25922; assay: microbe, parasite or virus in culture; settings: ATCC25922, read-out: MIC E. coli
MRSA ATCC 33591 = settings: ATCC 33591
[3] = system: Staphylococcus aureus ATCC 25923; settings: ATCC 25923
[4] = system: Escherichia coli ATCC 25922; settings: ATCC 25922
MRSE ATCC 27626 = settings: ATCC 27626
[5] = system: Staphylococcus aureus ATCC 25923; settings: ATCC 25923; remark: listed apart in the source
[6] = system: fresh human red blood cells; format: cell-based
Procedure: The hemolytic activities of the peptides were determined using fresh human red blood cells. 8 ml blood was taken from a healthy person. 4 ml blood was transferred to a polycarbonate tube containing heparin to a final concentration of 10 U/ml, and the remaining 4 ml blood was transferred to a glass tube containing EDTA with final concentration of 15% EDTA. The erythrocytes were isolated from heparin-treated blood by centrifugation in 1500 rpm for 10 min and washed three times with phosphate-buffered saline (PBS) to remove plasma and buffy coat. The cell pellet was resuspended in PBS to make the final volume of 4 ml. The peptide was diluted to a concentration of 2 mg/ml and 0.1 mg/ml. The peptide was further diluted to the concentrations as stated in Table 15. For each tube PBS was added first, then RBCs and peptide solutions. The hematocrit in the blood treated with EDTA was determined after 30 min with Sysmex K-1000, and the resuspended RBCS were diluted into 10% hematocrit. RBCs in PBS (1%) with and without peptides (Table 15) were incubated in a shaker at 37° for 1 hour and then centrifuged at 4000 rpm for 5 min. The supernatant were carefully transferred to new polycarbonate tubes and the absorbance of the supernatant was measured at 540 nm. […]

[7] = system: Escherichia coli ATCC 25922; settings: for MBC E. coli: ATCC 25922; for bacteriostatic or bactericidal: in respect of E. coli, high MBC but low MIC indicates bacteriostatic
E. coli = assay: Electronmicrograph of treated bacteria; format: cell-based; settings: FIG. 2
Source text: FIG. 1 is an electronmicrograph of normal (untreated) E. coli, and
FIG. 2 is an electronmicrograph of E. coli treated with one of the peptides described herein, WRWRWR [SEQ ID NO:1].

| Compound | MIC S. aureus [3] | MIC E. coli [4] | MIC MRSA (MRSA ATCC 33591) | MIC MRSE (MRSE ATCC 27626) | MIC P. aerug. (P. aeruginosa) | further results |
| --- | --- | --- | --- | --- | --- | --- |
| CC(C)(C)c1cc(C(C)(C)C)c2[nH]c(C(C)(C)C)c(C[C@H](N)C(=O)NCCCCN)c2c1 [H-Tbt-Dab-H] | – | – | – | – | – | MIC [1]: 35 mg/L (≈ 79.1 µM); MIC [2]: 35 mg/L (≈ 79.1 µM) |
| CC(C)(C)c1cc(C(C)(C)C)c2[nH]c(C(C)(C)C)c(C[C@H](N)C(=O)NCCN)c2c1 [H-Tbt-Dae-H] | – | – | – | – | – | MIC [1]: 15 mg/L (≈ 36.2 µM); MIC [2]: 15 mg/L (≈ 36.2 µM) |
| CC(C)(C)c1cc(C(C)(C)C)c2[nH]c(C(C)(C)C)c(C[C@H](N)C(=O)NCCCCCCN)c2c1 [H-Tbt-Dah-H] | – | – | – | – | – | MIC [1]: 15 mg/L (≈ 31.9 µM); MIC [2]: 15 mg/L (≈ 31.9 µM) |
| NCCCC[C@H](N)C(=O)O[C@H](Cc1c[nH]c2ccccc12)C(=O)OCc1ccccc1 [Kψ(COO)wOBzl] | – | – | – | – | – | Minimum inhibitory concentration MRSA (MRSA ATCC 33591): 100 mg/L (≈ 236 µM); Minimum inhibitory concentration S. aureus [3]: 50 mg/L (≈ 118 µM); Minimum inhibitory concentration P. aeruginosa (P. aeruginosa): 300 mg/L (≈ 708 µM); Minimum inhibitory concentration E. coli [4]: 150 mg/L (≈ 354 µM); Minimum inhibitory concentration MRSE (MRSE ATCC 27626): 37.5 mg/L (≈ 88.5 µM) |
| N=C(N)NCCC[C@H](NC(=O)[C@H](Cc1c[nH]c2ccccc12)NC(=O)[C@H](CCCNC(=N)N)NC(=O)[C@H](Cc1c[nH]c2ccccc12)NC(=O)[C@H](CCCNC(=N)N)NC(=O)[C@@H](N)Cc1c[nH]c2ccccc12)C(N)=O [WRWRWR] (H-WRWRWR-NH2) | 7.5 µg/mL (≈ 7.18 µM) | 7.5 mg/L (≈ 7.18 µM) | – | – | – | appearance of treated E. coli in electronmicrograph (E. coli): void of cytoplasmic matter and their cell membranes (as well as cell wall components) are destroyed; MBC S. aureus [5]: 10 µg/mL (≈ 9.58 µM); MBC E. coli [7]: 15 mg/L (≈ 14.4 µM) |

The next lines start with results.

| MIC S. aureus [3] | MIC E. coli [4] | MIC MRSA (MRSA ATCC 33591) | MIC MRSE (MRSE ATCC 27626) | MIC P. aerug. (P. aeruginosa) | Compound | further results |
| --- | --- | --- | --- | --- | --- | --- |
| 5 (5) μg/ml | 25 mg/L (≈ 35.8 µM) | – | – | – | COC(=O)[C@H](CCCNC(=N)N)NC(=O)[C@H](Cc1c(C(C)(C)C)[nH]c2c(C(C)(C)C)cc(C(C)(C)C)cc12)NC(=O)[C@@H](N)CCCNC(=N)N [RTbtR OMe, H-Arg-Tbt-Arg-OMe] | MBC S. aureus [5]: 5 (5) μg/ml; haemolysis EC50 [6]: 720 mg/L; MBC E. coli [7]: 50 mg/L (≈ 71.5 µM); bacteriostatic or bactericidal [7]: bactericidal |
| – | – | 4.0 mg/L (≈ 7.37 µM) | 4.0 mg/L (≈ 7.37 µM) | – | COC(=O)[C@H](CCCNC(=N)N)NC(=O)[C@@H](N)Cc1c(C(C)(C)C)[nH]c2c(C(C)(C)C)cc(C(C)(C)C)cc12 [TbtR OMe, H-Tbt-Arg-OMe] | MBC S. aureus [5]: 10 (10) μg/ml; haemolysis EC50 [6]: 360 mg/L; MBC E. coli [7]: 200 mg/L (≈ 368 µM); bacteriostatic or bactericidal [7]: bacteriostatic |
| 300.0 µg/mL (≈ 766 µM) | >300.0 mg/L | 150 to 200 mg/L | 100.0 mg/L (≈ 255 µM) | >300.0 mg/L | CC(C)(C)C[C@H](N)C(=O)N[C@@H](CCCNC(=N)N)C(=O)OCc1ccccc1 [tBuAR-OBzl] (H-[tBuAla]-Arg-OBn; N-terminus assumed) | – |
| 25.0 µg/mL (≈ 53.5 µM) | 200.0 mg/L (≈ 428 µM) | 12.5 to 25 mg/L | 5.0 mg/L (≈ 10.7 µM) | 100.0 mg/L (≈ 214 µM) | CC(C)(C)c1ccc(C[C@H](N)C(=O)N[C@@H](CCCNC(=N)N)C(=O)OCc2ccccc2)cc1 [tBuFR-OBzl] (H-[Phe(4-tBu)]-Arg-OBn; N-terminus assumed) | – |
| >300.0 µg/mL | >300.0 mg/L | 100.0 mg/L (≈ 255 µM) | 100.0 mg/L (≈ 255 µM) | >300.0 mg/L | COC(=O)[C@H](CCCNC(=N)N)NC(=O)[C@@H](N)Cc1ccc(C(C)(C)C)cc1 [tBuFR-OMe] (H-[Phe(4-tBu)]-Arg-OMe; N-terminus assumed) | – |
| >300.0 µg/mL | >300.0 mg/L | 100.0 mg/L (≈ 265 µM) | 150.0 mg/L (≈ 397 µM) | >300.0 mg/L | CC(C)(C)[C@H](N)C(=O)N[C@@H](CCCNC(=N)N)C(=O)OCc1ccccc1 [tBuGR-OBzl] (H-[Tle]-Arg-OBn; N-terminus assumed) | – |
